Experimental data as given in patent US20110009374A1, “METHOD OF WOUND HEALING AND SCAR MODULATION” (priority 2009, published 2011).

What was measured:
[1] = test system: linear subcutaneous-deep incision wounds in hairless mice (Skh:HR-1); assay: Example 2 scar evaluation by Vancouver Scale at day 21 and gross evaluation; format: in vivo; design: key: Vancouver Scale subscores (18-point total), mean of two observers
Protocol: (§1) Twelve hairless mice (Skh:HR-1) with an average weight of […] were treated topically with a local anesthetic (LMX-4, Ferndale Laboratories, Inc.) for 30 minutes prior to wounding for dermal anesthesia. Antiseptics were not used because of the possibility of their local effect on the wound healing process.
(§2) The mice were subdivided into two groups, A and B. Each mouse received three linear, 10 mm long, subcutaneous-deep incision wounds parallel to the spinal column. The first incision was near the spinal column on the left side (C), one at a position 10 mm away from the first on the same side (L), and one on the right side about 10 mm from the center line or spinal column (R). All incision wounds were made with a 0.3 mm blade surgical blade. Because of the loose nature of the hairless mouse epidermis the wounds spread to as wide as 3 mm. Each mouse was housed separately.
(§3) 1) 0.25% Formulations: water (79.75%), ethanol (18%), methylprednisolone acetate or prednisolone acetate (0.25%), and ammonium acryloyldimethyltaurate/VP copolymer (2%).
(§4) 2) 1% Formulations: water (79%), ethanol (18%), methylpredinisolone acetate or prednisolone acetate (1%), and ammonium acryloyldimethyltaurate/VP copolymer (2%).
(§5) In Group A, wounds C and L were treated with the 0.25% and 1% methylprednisolone acetate formulations, respectively, and wound R was the control or untreated wound. In Group B, wounds C and L were treated with the 0.25% and 1% prednisolone acetate formulations, respectively and wound R was the control. The study drug (methylprednisolone or prednisolone) was applied to the treatment wounds twice daily (8 hours apart) beginning 1 h after the incision on day 1 and continuing through day 21. The wounds were far enough apart to avoid the spread of the treatment gel from the treated wound to the control wound. No additional physical barrier, such as a gauze bandage, was used.
Each mouse was kept in its cage during days 14-21. On day 21, each scar was assessed according to the Vancouver Scale (18 points) under magnification by two observers independently and the scores were averaged and recorded. Progressive re-epithelializaton of the wound surface from the wound edges continued until the wound surface was completely closed at a time between days 14 and 21.

[2] = test system: linear subcutaneous-deep incision wounds in hairless mice (Skh:HR-1); assay: Example 2 wound healing in hairless mice: healing evaluation by wound width; format: in vivo
Protocol: as §1, §2, §3, §4, §5
Healing evaluation was made by measuring wound closure, which was assessed by the width of the wound. The width of each scar was measured with digital calipers at the widest point while subject was lying motionless, on its ventral side. Digital photographs were taken to record the healing process. The mean width of wound was recorded on days 1, 3, 5, 7, 9, 11, 13, 15, 17, 19 and 21.

With `CC(=O)OCC(=O)[C@@]1(O)CC[C@H]2[C@@H]3C[C@H](C)C4=CC(=O)C=C[C@]4(C)[C@H]3[C@@H](O)C[C@@]21C` [methylprednisolone acetate] the “Mean Vancouver Scale Scar Scoring, Height” value ([1]; wound C, 0.25% formulation) was 0, the “Mean Vancouver Scale Scar Scoring, Pigmentation” value ([1]; wound C, 0.25% formulation) was 1 and the “Mean Vancouver Scale Scar Scoring, Pliability” value ([1]; wound C, 0.25% formulation) was 2.0. For the same compound, the “Mean Vancouver Scale Scar Scoring, Vascularity” value ([1]; wound C, 0.25% formulation) was 0, the “Mean Vancouver Scale Scar Scoring, Height” value ([1]; wound L, 1% formulation) was 0 and the “Mean Vancouver Scale Scar Scoring, Pigmentation” value ([1]; wound L, 1% formulation) was 1. The “Mean Vancouver Scale Scar Scoring, Pliability” value ([1]; wound L, 1% formulation) was 1.5, the “Mean Vancouver Scale Scar Scoring, Vascularity” value ([1]; wound L, 1% formulation) was 0 and the “Mean Wound Width at Widest Margin” value ([2]; Day 1, wound C, 0.25% formulation twice daily) was 3.1 ± 0.3 mm. The “Mean Wound Width at Widest Margin” value ([2]; Day 1, wound L, 1% formulation twice daily) was 3.0 ± 0.2 mm, the “Mean Wound Width at Widest Margin” value ([2]; Day 3, wound C, 0.25% formulation twice daily) was 2.5 ± 0.2 mm and the “Mean Wound Width at Widest Margin” value ([2]; Day 3, wound L, 1% formulation twice daily) was 2.4 ± 0.3 mm. For the same compound, the “Mean Wound Width at Widest Margin” value ([2]; Day 5, wound C, 0.25% formulation twice daily) was 2.0 ± 0.3 mm, the “Mean Wound Width at Widest Margin” value ([2]; Day 5, wound L, 1% formulation twice daily) was 1.9 ± 0.4 mm and the “Mean Wound Width at Widest Margin” value ([2]; Day 7, wound C, 0.25% formulation twice daily) was 1.5 ± 0.2 mm. For the same compound, the “Mean Wound Width at Widest Margin” value ([2]; Day 7, wound L, 1% formulation twice daily) was 1.4 ± 0.2 mm, the “Mean Wound Width at Widest Margin” value ([2]; Day 9, wound C, 0.25% formulation twice daily) was 1.0 ± 0.3 mm and the “Mean Wound Width at Widest Margin” value ([2]; Day 9, wound L, 1% formulation twice daily) was 0.9 ± 0.3 mm. For the same compound, the “Mean Wound Width at Widest Margin” value ([2]; Day 11, wound C, 0.25% formulation twice daily) was 0.5 ± 0.2 mm, the “Mean Wound Width at Widest Margin” value ([2]; Day 11, wound L, 1% formulation twice daily) was 0.5 ± 0.1 mm and the “Mean Wound Width at Widest Margin” value ([2]; Day 13, wound C, 0.25% formulation twice daily) was 0.1 ± 0.3 mm. The “Mean Wound Width at Widest Margin” value ([2]; Day 13, wound L, 1% formulation twice daily) was 0.1 ± 0.2 mm, the “Mean Wound Width at Widest Margin” value ([2]; Day 15, wound C, 0.25% formulation twice daily) was 0 mm and the “Mean Wound Width at Widest Margin” value ([2]; Day 15, wound L, 1% formulation twice daily) was 0 mm. The “Mean Wound Width at Widest Margin” value ([2]; Day 17, wound C, 0.25% formulation twice daily) was 0 mm, the “Mean Wound Width at Widest Margin” value ([2]; Day 17, wound L, 1% formulation twice daily) was 0 mm and the “Mean Wound Width at Widest Margin” value ([2]; Day 19, wound C, 0.25% formulation twice daily) was 0 mm. For the same compound, the “Mean Wound Width at Widest Margin” value ([2]; Day 19, wound L, 1% formulation twice daily) was 0 mm, the “Mean Wound Width at Widest Margin” value ([2]; Day 21, wound C, 0.25% formulation twice daily) was 0 mm and the “Mean Wound Width at Widest Margin” value ([2]; Day 21, wound L, 1% formulation twice daily) was 0 mm.
